Values of other authors, collected in paper PMC8448535 (Bioorganic & Medicinal Chemistry, 2021).
Where a name gives a salt, the structure may show the parent alone.

Columns and labels:
[1] = test system: TMPRSS2
[2] = test system: recombinant-human ACE (rhACE); conditions: pIC50 of IC50 in mol/L
[3] = test system: recombinant-human ACE2 (rhACE2); conditions: pIC50 of IC50 in mol/L
[4] = test system: SARS-CoV
[5] = test system: ACE2; conditions: read-out: activity (inhibitory effect against ACE2)
[6] = test system: cell viability; conditions: in words
[7] = test system: furin; conditions: database screening of pre-existing drugs
[8] = test system: influenza virus H3N2; conditions: H3N2, 10 μM, at 24 h, compared to control

Molecule: CN(Cc1cc(Br)cc(Br)c1N)C1CCCCC1 [bromhexine]
- activity towards TMPRSS2 [1]: good activity

Molecule: CC(C)CC(N[C@@H](Cc1cncn1Cc1cc(Cl)cc(Cl)c1)C(=O)O)C(=O)O (stereo partly drawn) [MLN-4760-S/R]
- pIC50 [2]: 4.4 ± 0.2 mol/L
- pIC50 [3]: 8.5 ± 0.1 mol/L

Molecule: CC(C)C[C@@H](N[C@@H](Cc1cncn1Cc1cc(Cl)cc(Cl)c1)C(=O)O)C(=O)O [MLN-4760-R]
- pIC50 [2]: 4.4 ± 0.3 mol/L
- pIC50 [3]: 8.9 ± 0.1 mol/L

Molecule: CN(C)C(=O)COC(=O)Cc1ccc(OC(=O)c2ccc(NC(=N)N)cc2)cc1 [camostat mesylate]
- block of SARS-CoV from entering cells [4]: 65%

Molecule: NCCNCCN1CC1 [N-(2-aminoethyl)-1-aziridineethanamine]
- IC50 [5]: 57 ± 7 µM

Molecule: N=C(N)c1cccc(C[C@H](NS(=O)(=O)c2cccc(-c3ccc(Cl)cc3Cl)c2)C(=O)N2CCC(NC(=O)NC3CCCCC3)CC2)c1 [compound 114]
- effect on cell viability [6]: little to no effect

Molecule: Nc1nc(N)c2nc(CNc3ccc(C(=O)N[C@@H](CCC(=O)O)C(=O)O)cc3)cnc2n1 [aminopterin]
- affinity for furin [7]: good affinity

Molecule: CN(Cc1cnc2nc(N)nc(N)c2n1)c1ccc(C(=O)N[C@@H](CCC(=O)O)C(=O)O)cc1 [methotrexate]
- affinity for furin [7]: good affinity

Molecule: COc1cc(C2Oc3cc([C@H]4Oc5cc(O)cc(O)c5C(=O)[C@@H]4O)ccc3OC2CO)ccc1O (stereo partly drawn) [silybin]
- affinity for furin [7]: good affinity

Molecule: N=C(N)c1cccc(C[C@H](NS(=O)(=O)c2cccc(-c3ccc(Cl)cc3Cl)c2)C(=O)N2CCC(CCN)CC2)c1 [compound 92]
- effect on cell viability [6]: little to no effect
- decrease in virus titres [8]: 100 fold

Molecule: angiotensin-III (RVYIHPF; Angiotensin 3; UniProt P01019 26-32, looked up) [Ang-III]
- vasopressor efficacy relative to Ang-II: 40%

Molecule: N=C(N)c1ccc(/N=N/Nc2ccc(C(=N)N)cc2)cc1 [diminazene]
- affinity for furin [7]: good affinity
